From US5284853A, “Angiotensin II receptor blocking 2,3,6 substituted quinazolinones” (American Cyanamid Company, priority 1993, dated 1994)
Values joined by “and” are separate entries in the source; they are usually repeats but may differ in a detail not shown here. Equal entries are not always repeated. Values belong to the molecule of their own block, whether it stands above or below them.

How the values were obtained:
[1] = tested on: Angiotensin II (AII) vasopressor response; assay: AII Challenge: antagonism of the angiotensin II vasopressor response in conscious SHR; format: in vivo, Spontaneously hypertensive rats (Male okamoto-Aoki SHR); conditions: 5 mg/kg I.V.; for Average Change / Inhibition: n = 2; for Change / Control Before AII / Response After AII: per rat
From the text: […] Conscious Male okamoto-Aoki SHR, 16-20 weeks old, weighing approximately 330 g are purchased from Charles River Labs (Wilmington, MA). Conscious rats are restrained in a supine position with elastic tape. The area at the base of the tail is locally anesthetized by subcutaneous infiltration with 2% procaine. […] The cannula is secured, heparinized (1,000 I.U./ml), sealed and the wound is closed. The animals are placed in plastic restraining cages in an upright position. The cannula is attached to a Statham P23Db pressure transducer, and pulsatile blood pressure is recorded to 10-15 minutes with a Gould Brush recorder. (Chan et al., (Drug Development Res., 18:75-94, 1989). […] Co., St. […] […] […] […] […] A compound is considered active if at 30 mg/kg i.v. it antagonized at least 50% of the response.

Angiotensin II Receptor = target: T1, Angiotensin II Receptor (Bos taurus, UniProt P25104); assay: Receptor binding assay: competition of [^125 I](Sar^1,Ile^8)AngII binding to beef adrenal cortex microsomal membranes; conditions: 60 min, room temperature, pH 7.4
T1 construct: The brownish tissue forming the adrenal cortex is scraped off and finely minced with scissors before homogenization; tissue local slaughter house (Maxwell-Cohen); host or cells: beef adrenal cortex, microsomal membranes (100,000×g pellet)
T1 sequence (P25104 1-359): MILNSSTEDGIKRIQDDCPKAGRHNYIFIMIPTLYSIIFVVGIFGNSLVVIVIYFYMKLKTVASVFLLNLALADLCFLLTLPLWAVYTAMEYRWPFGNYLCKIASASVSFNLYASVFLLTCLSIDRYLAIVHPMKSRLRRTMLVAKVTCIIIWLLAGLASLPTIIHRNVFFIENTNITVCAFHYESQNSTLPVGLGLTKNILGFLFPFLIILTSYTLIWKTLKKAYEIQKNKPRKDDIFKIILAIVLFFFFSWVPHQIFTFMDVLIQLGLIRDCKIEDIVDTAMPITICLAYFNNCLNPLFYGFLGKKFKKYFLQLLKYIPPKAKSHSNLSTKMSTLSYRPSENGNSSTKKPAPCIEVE
From the text: Beef adrenals are obtained from a local slaughter house (Maxwell-Cohen). [^125 […]. 2200 Ci/mmole, is purchased from Dupont (KEN@, Boston, Mass.). All unlabeled AngII analogs, Dimethylsulfoxide (DMSO), nucleotides, bovine serum albumin (BBA) are purchased from Sigma Chemical Co., St. Louis, MO U.S.A. Approximately sixteen (16) to twenty (20) beef adrenal glands are processed as follows: fresh adrenal glands received on crushed ice are cleaned of fatty tissues and the tough membranes encapsulating the glands are removed and discarded. The brownish tissue forming the adrenal cortex is scraped off and finely minced with scissors before homogenization care is taken to avoid contamination with medullary tissue during dissection. […] Unless otherwise indicated, all subsequent operations are done at […]. […] The homogenate is centrifuged first at low speed (3,000×g) for 10 min. […] This P2 pellet is discarded and the liquid phase is carefully decanted off in clean centrifuge tubes and recentrifuged at high speed (100,000×g) for 60 min. The translucent final pellet is harvested and combined in a small volume (20-50.0 ml) of […] Tris.HCl buffer, pH 7.2. A 100 ul aliquot is withdrawn and the protein content of the preparation is determined by the Lowry's method (Lowry, O. H., Rosebrough, N. P., Parr, A. L. and Randall, R. J., Protein measurement with Folin phenol reagent. J. Biol. Chem., […], 265-275, 1951). The pelleted membrane is reconstituted in 50.0 mM Tris.HCl buffer containing 0.1 mM of phenylmethylsulfonyl fluoride (PMSF) to give approximately a protein concentration of 2.5 mg per ml of tissue suspension. […] In competition studies, experimental compounds are diluted in dimethylsulfoxide (DMSO) and added in 20 ul to wells before the introduction of tissue membranes. This concentration of DMSO is found to have no negative effects on the binding of [^125 I] ([…] to the membranes. Assays are performed in triplicate. The wells are left undisturbed for 60 min. at room temperature. Following incubation, all wells are harvested at once with a Brandel® Harvester especially designed for a 96 well plate (Brandel® Biomedical Research & Development Labs. Inc., Gaithersburg, MD, U.S.A.). The filter discs are washed with 10×1.0 ml of cold 0.9% NaCl to remove unbound ligand. Presoaking the filter sheet in 0.1% polyethyleneimine in normal saline (PEI/Saline) greatly reduces the radioactivity retained by the filter blanks. This method is routinely used. The filters are removed from the filter grid and counted in a Parkard® Cobra Gamma Counter for 1 min. (Packard Instrument Co., Downers Grove, Ill, U.S.A.). The binding data are analyzed by the non-linear interactive "LUNDON-11" program (LUNDON SOFTWARE Inc., Cleveland, OH U.S.A.).

[2] = AII 0.05 mcg/kg IV, 30 min post dose
[3] = AII 0.05 mcg/kg IV, 60 min post dose
[4] = AII 0.05 mcg/kg IV, 90 min post dose
[5] = AII 0.05 mcg/kg IV, 180 min post dose
[6] = AII 0.1 mcg/kg IV, 30 min post dose
[7] = AII 0.1 mcg/kg IV, 60 min post dose
[8] = AII 0.1 mcg/kg IV, 90 min post dose
[9] = AII 0.1 mcg/kg IV, 120 min post dose
[10] = AII 0.1 mcg/kg IV, 180 min post dose
[11] = AII 0.5 mcg/kg IV, 120 min post dose

IC50 (Angiotensin II Receptor): 0.33 µM
Structure (SMILES): CCCCc1nc2ccc(C3CC(c4ccc(C)s4)=NO3)cc2c(=O)n1Cc1ccc(-c2ccccc2-c2nnn[nH]2)cc1 (stereo not shown) [Example 21]
Average Change [1, 2]: 13.5 mmhg
Inhibition [1, 2]: 72%
Change [1, 2]: 17 mmhg and 10 mmhg
Control Before AII [1, 2]: 188 mmhg and 180 mmhg
Response After AII [1, 2]: 205 mmhg and 190 mmhg
Average Change [1, 3]: 25 mmhg
Inhibition [1, 3]: 47%
Change [1, 3]: 35 mmhg and 15 mmhg
Control Before AII [1, 3]: 175 mmhg
Response After AII [1, 3]: 210 mmhg and 190 mmhg
Average Change [1, 4]: 24 mmhg
Inhibition [1, 4]: 49%
Change [1, 4]: 25 mmhg and 23 mmhg
Control Before AII [1, 4]: 170 mmhg and 157 mmhg
Response After AII [1, 4]: 195 mmhg and 180 mmhg
Average Change [1, 5]: 30 mmhg
Inhibition [1, 5]: 37%
Change [1, 5]: 40 mmhg and 20 mmhg
Control Before AII [1, 5]: 170 mmhg and 160 mmhg
Response After AII [1, 5]: 210 mmhg and 180 mmhg
Average Change [1, 6]: 27.5 mmhg
Inhibition [1, 6]: 41%
Change [1, 6]: 30 mmhg and 25 mmhg
Control Before AII [1, 6]: 180 mmhg and 175 mmhg
Response After AII [1, 6]: 210 mmhg and 200 mmhg
Average Change [1, 7]: 34 mmhg
Inhibition [1, 7]: 28%
Change [1, 7]: 38 mmhg and 30 mmhg
Control Before AII [1, 7]: 175 mmhg and 165 mmhg
Response After AII [1, 7]: 213 mmhg and 195 mmhg
Average Change [1, 8]: 31 mmhg
Inhibition [1, 8]: 34%
Change [1, 8]: 40 mmhg and 22 mmhg
Control Before AII [1, 8]: 175 mmhg and 163 mmhg
Response After AII [1, 8]: 215 mmhg and 185 mmhg
Average Change [1, 9]: 31.5 mmhg
Inhibition [1, 9]: 33%
Change [1, 9]: 40 mmhg and 23 mmhg
Control Before AII [1, 9]: 175 mmhg and 160 mmhg
Response After AII [1, 9]: 215 mmhg and 183 mmhg
Average Change [1, 10]: 40 mmhg
Inhibition [1, 10]: 15%
Change [1, 10]: 50 mmhg and 30 mmhg
Control Before AII [1, 10]: 175 mmhg and 160 mmhg
Response After AII [1, 10]: 225 mmhg and 190 mmhg
Average Change [1, 11]: 27.5 mmhg
Inhibition [1, 11]: 42%
Change [1, 11]: 35 mmhg and 20 mmhg
Control Before AII [1, 11]: 185 mmhg and 160 mmhg
Response After AII [1, 11]: 220 mmhg and 180 mmhg

IC50 (Angiotensin II Receptor): 0.07 µM
Structure (SMILES): CCCCc1nc2ccc(C3CC(c4ccc(C)cc4)=NO3)cc2c(=O)n1Cc1ccc(-c2ccccc2-c2nnn[nH]2)cc1 (stereo not shown) [Example 23, 2-Butyl-6-[4,5-dihydro-3-(4-methylphenyl)-5-isoxazolyl]-3-[[2'-(lH-tetrazol-5-yl)[1,1'-biphenyl]-4-yl]methyl]-4(3H)-quinazolinone]
